Our source for the IC50 values is patent EP0801071A1, “LEWIS X DERIVATIVE AND PROCESS FOR PRODUCING THE SAME” (SUMITOMO PHARMACEUTICALS COMPANY, LIMITED, priority 1994, dated 1996).

The target in the experiment is T1, rsE-selectin (Homo sapiens, UniProt P16581).
T1 sequence (P16581 22-556 limits assumed): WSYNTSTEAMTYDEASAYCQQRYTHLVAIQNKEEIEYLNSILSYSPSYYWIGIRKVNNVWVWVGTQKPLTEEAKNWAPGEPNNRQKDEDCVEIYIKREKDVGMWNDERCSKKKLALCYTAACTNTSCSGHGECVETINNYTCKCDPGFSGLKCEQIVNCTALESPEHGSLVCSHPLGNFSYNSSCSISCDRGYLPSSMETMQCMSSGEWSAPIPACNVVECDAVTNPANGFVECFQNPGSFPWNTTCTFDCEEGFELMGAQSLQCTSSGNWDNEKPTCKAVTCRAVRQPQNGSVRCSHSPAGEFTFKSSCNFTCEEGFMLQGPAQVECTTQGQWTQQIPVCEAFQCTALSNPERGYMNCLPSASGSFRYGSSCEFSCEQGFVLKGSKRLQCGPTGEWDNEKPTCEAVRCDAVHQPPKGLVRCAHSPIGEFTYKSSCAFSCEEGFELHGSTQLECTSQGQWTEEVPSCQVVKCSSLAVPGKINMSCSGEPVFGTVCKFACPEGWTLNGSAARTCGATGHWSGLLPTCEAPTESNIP
In words: Inhibition of adhesion of HL-60 cells to plate-coated rsE-selectin (Experiment 2). The following applies: 50% inhibition concentration of adhesion of rsE-selectin to HL-60, from inhibition curves; medium-only well = 100%. The class given is cell-based. The procedure:
The DPBS solution containing rsE-selectin (3 µg/ml) was added to a 96 well plate at 50 µl/well, while wells filled with DPBS without rsE-selectin (non-specific adhesion control) were prepared on the same plate, and the plate was kept at room temperature for 3 hours. Then wells were washed 3 times with a DPBS/BSA solution at 200 µl/well, and DPBS/BSA solution was added at 200 µl/well, and the plate was kept at room temperature for 1 hour. After removing DPBS/BSA solution, a medium containing NWB or NWB plus a compound of the invention was added at 40 µl/well.
Frozen HL-60 cells were thawed promptly at 37°C, and washed with NWB cooled to 4°C 3 times by centrifugation at 1500rpm × 5 min. The cells were adjusted with NWB to 1×10^7 cells/ml, added to the plate at 20 µl/well, and the plate was kept at room temperature for 15 min.
The plate was set on a plate washer to remove nonadhesive HL-60 cells. The plate washer was set at slow mode, cycle 3 (washing 3 times), soak 0 sec., 12 rows (along vertical direction), and volume of NWB for 1 washing 200 µl/well at room temperature.
A citrate solution containing 0.1% NP-40 at room temperature was added at 50 µl/well, and the plate was kept at room temperature for 5 minutes. The substrate solution (4 mg OPDA, 4µl 30% H2O2/4 ml citrate) was added at 50 µl/well, protected from light with aluminum foil, allowed to develop color for 5 to 20 minutes, and the reaction was terminated by adding 4N-H2SO4 at 50µl/well. The substrate solution was used within 30 minutes after preparation.
The OD490 of each well was determined, and the OD490 value of the well for nonspecific adhesion was subtracted from the value of each well. The value found in a well containing only the medium was used as a control (100%) and the amount of adhesion in wells containing Compounds (15), (31), (33)-(40) or (41) of the invention was calculated by percent in terms of the values of the control. By drawing inhibition curves, 50% inhibition concentration (IC50) was determined.
The materials for the experiment were obtained from the following sources. rsE-selectin: producible by the method described in J. C. Poulson, J. Am. Chem. Soc., 117: 66-79 (1995). The sample of rsE-selectin used in the experiments was kindly supplied by the author. HL-60 : ATCC Corp. DPBS (Dulbecco Phosphate Buffered Saline) : GIBCO Corp. BSA (Bovine Serum Albumin) : Sigma Corp. HBSS (Hanks Balanced Salt Solution) : GIBCO Corp. OPDA (Ortho-phenylenediamine) : Sigma Corp. RPMI 1640 medium : GIBCO Corp. Bovine Fetal Serum : GIBCO Corp. Plate : Immulon. 2. (flat bottomed) : Dynatech Laboratories. Plate washer; Microplate Washer : Molecular Devices Corp.
A compound of the present invention was adjusted to 100mM with DPBS, and pH was adjusted to 7.1-7.4.
HL-60 was cultured in RPMI 1640 medium supplemented with 10% Bovine Fetal Serum. Using a cell freezing solution consisting of 80% RPMI 1640 medium + 10% Bovine Fetal Serum + 10% DMSO, HL-60 was frozen at 1.5 × 10^7 cells per a tube according to a conventional method, and stocked at -80°C. This was used under sterile condition.
Composition of DPBS/BSA was DPBS + 1% BSA.
Composition of NWB was HBSS + 10mM-HEPES + 0.2%glucose + 1%BSA+ 1mM-CaCl2. These two solutions are prepared under sterile condition.
The citrate solution was prepared by dissolving 2.33 g of citric acid and 9.20 g of Na2HPO4·12H2O in 500 ml of desalted water.

As usually defined, the IC50 is the concentration that inhibits the measured activity by half. For `CC(=O)N[C@H]1[C@H]([C@H](O)[C@H](O)CO)O[C@@](O[C@H]2[C@@H](O)[C@@H](CO)O[C@@H](O[C@H]3[C@H](O[C@@H]4O[C@@H](C)[C@@H](O)[C@@H](O)[C@@H]4O)[C@@H](NC(=O)c4ccc5ccccc5c4)[C@H](OCCOCc4ccccc4)O[C@@H]3CO)[C@@H]2O)(C(=O)O)C[C@@H]1O` [Compound 33, 2-Benzyloxyethyl (5-acetamido-3,5-dideoxy-α-D-glycero-D-galacto-2-nonulopyranosylonic acid)-(2→3)-O-(β-D-galactopyranosyl)-(1→4)-O-[α-L-fucopyranosyl-(1→3)-O ]-(2-deoxy-2-naphthamido-β-D-glucopyranoside)], half-maximal inhibition (IC50) was put at 210 µM.

`CC(=O)N[C@H]1[C@H]([C@H](O)[C@H](O)CO)O[C@@](O[C@H]2[C@@H](O)[C@@H](CO)O[C@@H](O[C@H]3[C@H](O[C@@H]4O[C@@H](C)[C@@H](O)[C@@H](O)[C@@H]4O)[C@@H](NC(=O)c4ccc5ccccc5c4)[C@H](OCCOCCOCCO)O[C@@H]3CO)[C@@H]2O)(C(=O)O)C[C@@H]1O` [Compound 34, 2-[2-(2-Hydroxyethoxy)ethoxy]ethyl (5-acetamido-3,5-dideoxy-α-D-glycero-D-galacto-2-nonulopyra nosylonic acid)-(2→3)-O-(β-D-galactopyranosyl)-(1→4)-O-[α-L-fucopyranosyl-(1→3)-O]-(2-deoxy-2-paphthamido-β-D-glucopyranoside)] yielded an IC50 of 110 µM.

For the molecule `CC(=O)N[C@H]1[C@H]([C@H](O)[C@H](O)CO)O[C@@](O[C@H]2[C@@H](O)[C@@H](CO)O[C@@H](O[C@H]3[C@H](O[C@@H]4O[C@@H](C)[C@@H](O)[C@@H](O)[C@@H]4O)[C@@H](NC(=O)c4ccc5ccccc5c4)[C@H](OCCCc4ccccc4)O[C@@H]3CO)[C@@H]2O)(C(=O)O)C[C@@H]1O` [Compound 36, 3-Phenylpropyl (5-acetamido-3,5-dideoxy-α-D-glycero-D-galacto-2-nonulopyranosylonic acid)-(2→3)-O-(β-D-galactopyranosyl)-(1→4)-O-[α-L-fucopyranosyl-(1→3)-O]-(2-deoxy-2-naphthamido-β-D-glucopyranoside)], the IC50 was 110 µM.

Take `CC(=O)N[C@H]1[C@H]([C@H](O)[C@H](O)CO)O[C@@](O[C@H]2[C@@H](O)[C@@H](CO)O[C@@H](O[C@H]3[C@H](O[C@@H]4O[C@@H](C)[C@@H](O)[C@@H](O)[C@@H]4O)[C@@H](NC(=O)c4ccc5ccccc5c4)[C@H](OCCCCCCCCCCCCO)O[C@@H]3CO)[C@@H]2O)(C(=O)O)C[C@@H]1O` [Compound 37, 12-Hydroxydodecyl (5-acetamido-3,5-dideoxy-α-D-glycero-D-galacto-2-nonulopyranosylonic acid)-(2→3)-O-(β-D-galactopyranosyl)-(1→4)-O-[α-L-fucopyranosyl-(1→3)-O]-(2-deoxy-2-naphthamido-β-D-glucopyranoside)]: the IC50 turned out to be 110 µM.

Molecule `COc1cc(CCCO[C@@H]2O[C@H](CO)[C@@H](O[C@@H]3O[C@H](CO)[C@H](O)[C@H](O[C@]4(C(=O)O)C[C@H](O)[C@@H](NC(C)=O)[C@H]([C@H](O)[C@H](O)CO)O4)[C@H]3O)[C@H](O[C@@H]3O[C@@H](C)[C@@H](O)[C@@H](O)[C@@H]3O)[C@H]2NC(=O)c2ccc3ccccc3c2)cc(OC)c1OC` [Compound 38, 3-(3,4,5-Trimethoxyphenyl)propyl (5-acetamido-3,5-dideoxy-α-D-glycero-D-galacto-2-nonulopyranosylonic acid)-(2→3)-O-(β-D-galactopyranosyl)-(1→4)-O-[α-L-fucopyranosyl-(1→3)-O]-(2-deoxy-2-naphthamido-β-D-glucopyra noside)] had an IC50 of 150 µM.

In turn, `CCCCCCCCCOc1cc(CCCO[C@@H]2O[C@H](CO)[C@@H](O[C@@H]3O[C@H](CO)[C@H](O)[C@H](O[C@]4(C(=O)O)C[C@H](O)[C@@H](NC(C)=O)[C@H]([C@H](O)[C@H](O)CO)O4)[C@H]3O)[C@H](O[C@@H]3O[C@@H](C)[C@@H](O)[C@@H](O)[C@@H]3O)[C@H]2NC(=O)c2ccc3ccccc3c2)cc(OC)c1OC` [Compound 39, 3-(4,5-Dimethoxy-3-nonyloxyphenyl)propyl (5-acetamido-3,5-dideoxy-α-D-glycero-D-galacto-2-nonulopyra nosylonic acid)-(2→3)-O-(β-D-galactopyranosyl)-(1→4) -O-[α-L-fucopyranosyl-(1→3)-O]-(2-deoxy-2-naphthamido-β-D-g lucopyranoside)] showed an IC50 of 150 µM.

`CCCCCCCCCOc1c(OC)cc(CCCO[C@@H]2O[C@H](CO)[C@@H](O[C@@H]3O[C@H](CO)[C@H](O)[C@H](O[C@]4(C(=O)O)C[C@H](O)[C@@H](NC(C)=O)[C@H]([C@H](O)[C@H](O)CO)O4)[C@H]3O)[C@H](O[C@@H]3O[C@@H](C)[C@@H](O)[C@@H](O)[C@@H]3O)[C@H]2NC(=O)c2ccc3ccccc3c2)cc1OC` [Compound 40, 3-(3,5-Dimethoxy-4-nonyloxyphenyl)propyl (5-acetamido-3,5-dideoxy-α-D-glycero-D-galacto-2-nonulopyra nosylonic acid)-(2→3)-O-(β-D-galactopyranosyl)-(1→4)-O-[α-L-fucopyranosyl-(1→3)-O]-(2-deoxy-2-naphthamido-β-D-glucopyranoside)] registered an IC50 of 70 µM.

With `COc1cc(CCCO[C@@H]2O[C@H](CO)[C@@H](O[C@@H]3O[C@H](CO)[C@H](O)[C@H](O[C@]4(C(=O)O)C[C@H](O)[C@@H](NC(C)=O)[C@H]([C@H](O)[C@H](O)CO)O4)[C@H]3O)[C@H](O[C@@H]3O[C@@H](C)[C@@H](O)[C@@H](O)[C@@H]3O)[C@H]2NC(=O)c2ccccc2)cc(OC)c1OC` [Compound 41, 3-(3,4,5-Trimethoxyphenyl)propyl (5-acetamido-3,5-dideoxy-α-D-glycero-D-galacto-2-nonulopyranosylonic acid)-(2→3)-O-(β-D-galactopyranosyl)-(1→4)-O-[α-L-fucopyranosyl-(1→3)-O]-(2-deoxy-2-benzamido-β-D-glucopyranoside)], the IC50 turned out to be 110 µM.
